According to patent EP3352763B1 (priority 2015, dated 2017):

System: A/Mississippi/3/2001/Variante, H1N1
Format: cell-based, Influenzaviren

O=C(/C=C/c1ccc(O)cc1)OC[C@H]1O[C@@H](Oc2c(-c3ccc(O)cc3)oc3cc(O)cc(O)c3c2=O)[C@H](O)[C@@H](O)[C@@H]1O [Tilirosid, Kaempferol-3-(6"-trans-p-coumaroyl)glucosid]
Selektivitätsindex (S.I.): 1.047
antivirale Wirkung: antiviral wirkt
